Where two headings read alike, the source gives them in different places.
How the values were obtained:
[1] = log P by HPLC on reversed-phase columns (C 18), EEC directive 79/831 Annex V.A8; assay type: physicochemical; details: for logP[a]: method [a]; for logP[b]: method [b]; for chromatographic logP: reversed-phase C18 HPLC column
Outline: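 Measured by reversed-phase C18 HPLC (LC-MS) with a linear 10→95% acetonitrile gradient. Acidic: pH 2.7, 0.1% formic acid. Neutral: pH 7.8, 0.001 M ammonium bicarbonate.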

[2] = tested on: southern root-knot nematode (Meloidogyne incognita); assay: Meloidogyne incognita test (MELGIN); assay type: in vivo; details: application rate 20 ppm, after 14 days, lettuce
Description: 5. Meloidogyne incognita Test (MELGIN) • Solvent: 125.0 parts by weight of acetone To prepare a suitable active compound preparation, 1 part by weight of active compound is mixed with the stated amount of solvent and the concentrate is diluted with water to the desired concentration. Vessels are filled with sand, active compound solution, an egg/larvae suspension of the southern root-knot nematode (Meloidogyne incognita) and lettuce seeds. The lettuce seeds germinate and the plants develop. On the roots, galls are formed. After 14 days, the nematicidal effect in % is determined by the formation of galls. 100% means that no galls have been found; 0% means that the number of galls on the treated plants corresponds to the untreated control.

[3] = tested on: greenhouse red spider mite (Tetranychus urticae); assay: Tetranychus urticae spray test, OP-resistant (TETRUR); assay type: in vivo; details: after 6 days, bean leaf discs
Description: 4. Tetranychus urticae Spray Test, OP-Resistant (TETRUR)
• Solvents: 78.0 parts by weight of acetone • 1.5 part by weight of dimethylformamide • Emulsifier: 0.5 part by weight of alkylaryl polyglycol ether
To produce a suitable preparation of active compound, 1 part by weight of active compound is mixed with the stated amounts of solvents and emulsifier, and the concentrate is diluted with emulsifier-containing water to the desired concentration.
Discs of bean leaves (Phaseolus vulgaris) which are infested by all stages of the greenhouse red spider mite (Tetranychus urticae) are sprayed with an active compound preparation of the desired concentration.
After 6 days, the efficacy in % is determined. 100% means that all of the spider mites have been killed; 0% means that none of the spider mites have been killed.

Compound	logP[a] [1]	logP[b] [1]	nematicidal effect in % (formation of galls) [2] [%]	efficacy in % (spider mites killed) ([3]; application rate 500 g/ha) [%]	other results
Cc1cc(F)c(-n2cnc3c(cnn3CC(F)(F)F)c2=O)cc1[S+]([O-])CC(F)(F)F (racemic) [Compound 18]	2.34	2.33	90	–	–
Cc1nn(C)c2ncn(-c3ccc(C(F)(F)F)c([S+]([O-])CC(F)(F)F)c3)c(=O)c12 (racemic) [Compound 32]	2.39	2.34	90	–	–
Cc1c2c(=O)n(-c3ccc(Cl)c([S+]([O-])CC(F)(F)F)c3)cnc2nn1C (racemic) [Compound 49]	1.78	1.75	90	–	–
Cc1cc(F)c(-n2c(C(F)(F)F)nc3c(cnn3CC(F)(F)F)c2=O)cc1SCC(F)(F)F [Compound 19]	4.20	4.10	90	–	–
Cc1cc(F)c(-n2c(C(F)(F)F)nc3nn(C)cc3c2=O)cc1[S+]([O-])CC(F)(F)F (stereo not drawn) [Compound 43]	–	–	90	–	–
Cc1c2c(=O)n(-c3ccc(C(F)(F)F)c(SCC(F)(F)F)c3)cnc2nn1C [Compound 45]	2.70	2.63	80	–	–
Cc1cc(F)c(-n2cnc3c(ncn3C)c2=O)cc1SCC(F)(F)F [Compound 52]	2.17	2.11	–	90	–
O=c1c2ncsc2ncn1-c1cc(SCC(F)(F)F)c(Cl)cc1Cl [Compound 63]	2.83	2.77	90	–	–
Cc1cc(F)c(-n2c(C)nc3scnc3c2=O)cc1SCC(F)(F)F [Compound 64]	2.72	2.70	90	–	–
Cc1cc(C)c([S+]([O-])CC(F)(F)F)cc1-n1cnc2scnc2c1=O (stereo not drawn) [Compound 66]	1.6	1.62	–	90	–
Cc1cc(F)c(-n2c(C)nc3scnc3c2=O)cc1[S+]([O-])CC(F)(F)F (stereo not drawn) [Compound 68]	1.72	1.70	–	90	–
Cc1nc2c(=O)n(-c3cc(SCC(F)(F)F)c(C)cc3F)cnc2s1 [Compound 70]	2.80	2.74	90	–	–
Cc1cc(C)c(-n2cnc3ncsc3c2=O)cc1SCC(F)(F)F [Compound 76]	2.62	2.59	–	90	–
O=c1c2ccsc2ncn1-c1ccc(Cl)c([S+]([O-])CC(F)(F)F)c1 (stereo not drawn) [Compound 87]	2.20	2.17	100	–	–
Cc1cc(C)c(-n2cnc3sccc3c2=O)cc1SCC(F)(F)F [Compound 91]	3.34	3.25	–	100	–
Cc1cc(F)c(-n2cnc3sccc3c2=O)cc1SCC(F)(F)F [Compound 92]	3.22	3.14	–	100	–
Cc1cc(C)c([S+]([O-])CC(F)(F)F)cc1-n1cnc2sccc2c1=O (stereo not drawn) [Compound 97]	2.15	2.11	90	–	–
Cc1cc(F)c(-n2cnc3ccsc3c2=O)cc1SCC(F)(F)F [Compound 108]	3.01	2.90	90	–	–
Cc1cc(F)c(-n2cnc3ccsc3c2=O)cc1[S+]([O-])CC(F)(F)F (stereo not drawn) [Compound 113]	2.35	2.31	90	–	–
Cc1cc(F)c(-n2cnc3c(Cl)csc3c2=O)cc1[S+]([O-])CC(F)(F)F (stereo not drawn) [Compound 114]	2.43	2.38	90	–	–
Cc1ccc(-n2cnc3nsc(C(C)(C)C)c3c2=O)cc1SCC(F)(F)F [Compound 116]	4.05	3.96	–	90	–
CC(C)(C)c1snc2ncn(-c3ccc(Cl)c(SCC(F)(F)F)c3)c(=O)c12 [Compound 117]	4.06	3.97	–	90	–
Cc1cc(F)c(-n2nnc3c(cnn3C)c2=O)cc1SCC(F)(F)F [Compound 119, 3-{2-Fluoro-4-methyl-5-[(2,2,2-trifluoroethyl)sulphanyl]phenyl}-7-methyl-3,7-dihydro-4H-pyrazolo[3,4-d][1,2,3]triazin-4-one]	–	–	–	90	chromatographic logP ([1]; pH 2.7, acidic range, pH 2.7, 0.1% aqueous formic acid / acetonitrile, read-out: log P[a]): 3.16; chromatographic logP ([1]; pH 2.7, method [a], read-out: logP[a]): 3.16; chromatographic logP ([1]; pH 7.8, method [b], read-out: logP[b]): 3.13; chromatographic logP ([1]; pH 7.8, neutral range, pH 7.8, 0.001 molar aqueous ammonium bicarbonate / acetonitrile, read-out: log P[b]): 3.13

Compound	logP[a] [1]	logP[b] [1]	nematicidal effect in % (formation of galls) [2] [%]	efficacy in % (spider mites killed) ([3]; application rate 500 g/ha) [%]	other results
Cc1ccc(-n2cnc3cnn(C)c3c2=O)cc1[S+]([O-])CC(F)(F)F (stereo not drawn) [Compound 142]	–	–	100	100	–
CCc1nc2cnn(C)c2c(=O)n1-c1cc(SCC(F)(F)F)c(C)cc1F [Compound 146]	–	–	90	–	–
CCc1nc2cnn(C)c2c(=O)n1-c1cc([S+]([O-])CC(F)(F)F)c(C)cc1F (stereo not drawn) [Compound 147]	–	–	100	100	–
Cn1ncc2ncn(-c3cc(SCC(F)(F)F)c(Cl)cc3F)c(=O)c21 [Compound 148]	–	–	100	100	–
Cc1nc2cnn(C)c2c(=O)n1-c1cc(SCC(F)(F)F)c(Cl)cc1F [Compound 149]	–	–	100	100	–
Cc1cc(Cl)c(-n2nnc3cnn(C)c3c2=O)cc1[S+]([O-])CC(F)(F)F (stereo not drawn) [Compound 153]	–	–	100	90	–
Cc1nc2cnn(C)c2c(=O)n1-c1cc([S+]([O-])CC(F)(F)F)c(Cl)cc1F (stereo not drawn) [Compound 155]	–	–	100	90	–
Cc1cc(Cl)c(-n2c(C)nc3cnn(C)c3c2=O)cc1[S+]([O-])CC(F)(F)F (stereo not drawn) [Compound 157]	–	–	90	100	–
CCn1ncc2ncn(-c3cc(SCC(F)(F)F)c(C)cc3F)c(=O)c21 [Compound 159]	–	–	100	100	–
CCn1ncc2nc(C)n(-c3cc(SCC(F)(F)F)c(C)cc3F)c(=O)c21 [Compound 160]	–	–	100	100	–
Cc1cc(F)c(-n2c(C)nc3cnn(C(C)C)c3c2=O)cc1SCC(F)(F)F [Compound 162]	–	–	90	100	–
CCn1ncc2ncn(-c3cc([S+]([O-])CC(F)(F)F)c(C)cc3F)c(=O)c21 (stereo not drawn) [Compound 163]	–	–	90	100	–
CCn1ncc2nc(C)n(-c3cc([S+]([O-])CC(F)(F)F)c(C)cc3F)c(=O)c21 (stereo not drawn) [Compound 164]	–	–	100	100	–
Cc1cc(F)c(-n2cnc3cnn(CC4CC4)c3c2=O)cc1SCC(F)(F)F [Compound 167]	–	–	100	100	–
Cc1cc(F)c(-n2c(C)nc3cnn(CC4CC4)c3c2=O)cc1SCC(F)(F)F [Compound 168]	–	–	90	–	–
Cc1cc(F)c(-n2cnc3cnn(CC4CC4)c3c2=O)cc1[S+]([O-])CC(F)(F)F (stereo not drawn) [Compound 169]	–	–	100	100	–
Cc1cc(F)c(-n2c(C)nc3cnn(CC4CC4)c3c2=O)cc1[S+]([O-])CC(F)(F)F (stereo not drawn) [Compound 170]	–	–	100	100	–
Cc1cc(F)c(-n2cnc3c(C)nsc3c2=O)cc1[S+]([O-])CC(F)(F)F (stereo not drawn) [Compound 181]	–	–	90	100	–
Cc1cc(F)c(-n2c(C)nc3ncsc3c2=O)cc1[S+]([O-])CC(F)(F)F (stereo not drawn) [Compound 188]	–	–	90	100	–
Cc1cc(F)c(-n2cnc3onc(C)c3c2=O)cc1SCC(F)(F)F [Compound 194]	–	–	100	90	–
CCc1noc2ncn(-c3cc(SCC(F)(F)F)c(C)cc3F)c(=O)c12 [Compound 195]	–	–	90	90	–
Cc1cc(F)c(-n2cnc3onc(C)c3c2=O)cc1[S+]([O-])CC(F)(F)F (stereo not drawn) [Compound 196]	–	–	100	–	efficacy in % (spider mites killed) ([3]; application rate 100 g/ha): 90%

Reference: patent US9512128B2 (BAYER CROPSCIENCE AG, priority 2012, dated 2016)
